Laboratory results as given in patent publication EP4775209A1 (Ascentawits Pharmaceuticals, Ltd., priority 2023, dated 2025).

Assays:
[1] = tested on: HuPrime® lung cancer LU5161 subcutaneous xenograft model
Text: (§1) For the experimental procedures and relevant evaluation indicators of the aforementioned solid tumor animal efficacy models, please refer to Examples 7, 8, and 9 in Patent Application 1, namely PCT/US2016/062114, with Publication No. WO2017/087428 (corresponding to Chinese Application CN201680044608.1, with Publication No. CN108290911B), Examples 3 and 4 in Patent Application 2, namely PCT/CN2021/078115, with Publication No. WO2022178821, and Research Literature 1. The aforementioned non-clinical animal efficacy models (PDX) mentioned in the present application are all similar to those in the aforementioned literatures, and the specific operation procedures thereof are not described herein again.
LU5161 is a HuPrime® xenograft model established from a lung tumor (small cell lung cancer) of a patient.
Efficacy was evaluated based on the relative tumor growth inhibition rate (TGI, %), and safety was evaluated based on animal body weight changes and mortality.

[2] = cited from earlier work
[3] = tested on: HuPrime® liver cancer LI6664 subcutaneous xenograft PDX model; experiment: Liver cancer LI6664 subcutaneous xenograft PDX efficacy model; type: in vivo, BALB/c nude mice; conditions: all AST-3424 treatment groups (0.3, 1, 1.25 mg/kg)
[4] = tested on: HuPrime® pancreatic cancer PA9451 subcutaneous xenograft model; experiment: Pancreatic cancer PA9451 subcutaneous xenograft efficacy model; type: in vivo, BALB/c nude mice; conditions: for TGI (%): Day 36, P<0.001; for mean tumor volume: Day 36 after first administration
[5] = tested on: HuPrime® lung cancer LU5173 subcutaneous xenograft model
Text: as §1
The LU5173 is a HuPrime® xenograft model established from a lung cancer (small cell lung carcinoma) tumor of a patient.
Efficacy was evaluated based on the relative tumor growth inhibition (TGI, %), and safety was evaluated based on animal body weight changes and mortality.

[6] = tested on: human liver cancer (HepG2-GFP) orthotopic CDX model; experiment: Human liver cancer orthotopic CDX efficacy model (QW×2 regimen); type: in vivo, nude mice; conditions: 1.25, 2.5, 5 mg/kg, QW×2, drug free one week, QW×2, I.V.; significant dose-effect relationship
Text: The data from this experiment correspond to the data of the HepG2 model in Example 3-1 of the aforementioned Patent Application 2 (see Table 5 and Figures 4A, 4B of this application).

[7] = tested on: HuPrime® pancreatic cancer PA1280 subcutaneous xenograft model; experiment: Pancreatic cancer PA1280 subcutaneous xenograft efficacy model; type: in vivo, BALB/c nude mice
Description: The drug was administered via tail vein injection once weekly for a total of three weeks, followed by one week of observation.

[8] = 1 mg/kg QD×5, 2 cycles, no animal deaths
[9] = 1 mg/kg QD×5, 16 days off, QD×5
[10] = 2 mg/kg once weekly for 2 weeks

## C[C@H](OP(=O)(N1CC1)N1CC1)c1ccc([N+](=O)[O-])c(Oc2cccc(C(=O)N(C)C)c2)c1 [AST-3424]
[1]; 1 mg/kg QD×5, 2 cycles, 6 mice per group
  tumor clearance: the tumor in one mouse was cleared
[1]; [8]
  tolerability (body weight changes and mortality): well tolerated
[1]; day 29 after first administration, AST-3424 1 mg/kg QD×5, 16 days off, QD×5 (P < 0.001), ifosfamide 60 mg/kg QD×5/week for 2 weeks (p > 0.05)
  TGI (%): 95.62%
[1]; day 29 after first administration, AST-3424 1 mg/kg QD×5, 16 days off, QD×5, ifosfamide 60 mg/kg QD×5/week for 2 weeks, negative control 2238.97
  mean tumor volume: 94.42 mm^3
[2]; after intravenous OBI-3424, US patients, parent drug and metabolite
  T1/2: approximately 0.4 hours
[2]; doses ranging from 1 to 14 mg/m^2, minimal accumulation after repeated administration
  pharmacokinetic characteristics: linear pharmacokinetic characteristics
[3]
  tolerability (body weight changes and mortality): well tolerated
[4]; 0.5 mg/kg QD×5, 16 days off, QD×5
  TGI (%): 91.77%
[4]; 0.5 mg/kg QD×5, 16 days off, QD×5, vehicle 661.61
  mean tumor volume: 54.83 mm^3
[4]; [9]
  TGI (%): 92.99%
  mean tumor volume: 46.05 mm^3
[4]; [10]
  TGI (%): 88.53%
  mean tumor volume: 76.78 mm^3
[4]; AST-3424 groups 0.5, 1 mg/kg QD×5 and 2 mg/kg QW, no animal deaths, no apparent drug toxicity
  tolerability (body weight changes and mortality): well tolerated
[5]; [8]
  tolerability (body weight changes and mortality): well tolerated
[5]; day 32 after first administration, AST-3424 1 mg/kg QD×5, 16 days off, QD×5 (P < 0.001), ifosfamide 6.0 mg/kg QD×5/week for 2 weeks (p > 0.05)
  TGI (%): 78.56%
[5]; day 32 after first administration, AST-3424 1 mg/kg QD×5, 16 days off, QD×5, ifosfamide 6.0 mg/kg QD×5/week for 2 weeks, vehicle 2276.68
  mean tumor volume: 503.91 mm^3
[6]
  effect on the orthotopic model of human liver cancer in mice: strong inhibitory effect
[7]; 2.5 mg/kg once weekly for three weeks, no animal deaths, no apparent drug toxicity
  tolerability (body weight changes and mortality): well tolerated
[7]; 2.5 mg/kg tail vein once weekly for three weeks, Day 27, vehicle 475.07
  mean tumor volume: 190.34 mm^3
